According to patent US6809094B2, “Pharmaceutical composition for the treatment of CNS and other disorders” (Pfizer Inc, priority 2000, dated 2004):
Structures can show the parent of a compound that is named as a salt.

A melting point of 232.1 °C was found for `O=[N+]([O-])c1cccc2oc(N3CCN4CCC3CC4)nc12` in this work.
A melting point of 242.3 °C was found for `O=[N+]([O-])c1cc2nc(N3CCN4CCC3CC4)oc2cc1Cl` in this work.
In the case of `c1ccc(-c2ccc3oc(N4CCN5CCC4CC5)nc3c2)cc1`, the melting point is reported as > 300 °C.
A melting point of 167.2 °C was found for `c1ccc2c(c1)ccc1oc(N3CCN4CCC3CC4)nc12` in this work.
In the case of `c1ccc2[nH]c(N3CCN4CCC3CC4)nc2c1`, the melting point is reported as > 300 °C.
A melting point of 296.4 °C was found for `O=[N+]([O-])c1ccc2nc(N3CCN4CCC3CC4)oc2c1` in this work.
A melting point of 281.3 °C was found for `c1ccc(-c2ccc3nc(N4CCN5CCC4CC5)oc3c2)cc1` in this work.
For `Brc1cnc2oc(N3CCN4CCC3CC4)nc2c1`, the melting point was > 300 °C.
A melting point of 240.2 °C was found for `O=[N+]([O-])c1ccc2oc(N3CCN4CCC3CC4)nc2c1` in this work.
For `c1cncc(-c2ccc3oc(N4CCN5CCC4CC5)nc3c2)c1`, the melting point was > 300 °C.
In the case of `O=[N+]([O-])c1cc2oc(N3CCN4CCC3CC4)nc2cc1Cl` (as salt: hydrochloride), the melting point is reported as > 300 °C.
In the case of `c1ccc2cc3oc(N4CCN5CCC4CC5)nc3cc2c1`, the melting point is reported as > 300 °C.
With `Ic1ccc2oc(N3CCN4CCC3CC4)nc2c1` the melting point was > 300 °C.
